Literature values as cited in patent publication US20240293300A1, “SKIN PENETRATION COSMETIC MATERIAL, AND SKIN PENETRATION COSMETIC MATERIAL PRODUCTION METHOD” (SHISEIDO COMPANY, LTD., priority 2021, published 2024).
Where a SMILES comes first, the peptide text is derived from it.

conditions: 1-octanol/water partition coefficient

Row | Compound | Log P
1 | Cc1cc(C)nc(-n2nc(C)cc2C)n1.Cl [compound a, 2-(3,5-dimethylpyrazol-1-yl)-4,6-dimethyl pyrimidine hydrochloride] | 1.36
2 | N[C@@H](CCC(=O)O)C(=O)O [glutamic acid] | −3.7
3 | NCC(=O)NCC(=O)O [glycylglycine] (H-Gly-Gly-OH) | −2.3
4 | piperidine propionic acid | −2.06
